Results: patent EP1148048A2, “Polyaromatic antiviral compositions” (PHARMACIA & UPJOHN COMPANY, priority 1997, dated 1998)
Like-named read-outs stand apart in the source and are kept apart here.

Legend:
Type in all cases: cell-based
HSV-1 = test: Virus yield reduction assay, inhibition of HSV-1 viral replication in Vero cells; conditions: read-out: % Inhibition Against HSV-1 Viral Replication
Method: (§1) Compounds of the formulas II and III of the present invention are evaluated in an assay to measure the inhibition of HSV-1 viral replication in the presence of drug over a 14-16 hour period. The assay is discussed in detail by Pritchard, M.N. et al. "A Microliter Virus Yield Reduction Assay for the Evaluation of Antiviral Compounds Against Human Cytomegalovirus and Herpes Simplex Virus", J. Virol. Meth., Vol. 28, pp 101-106 (1990). Briefly, 80% confluent monolayers of Vero cells in 24 well plates are infected with low multiplicities of HSV-1 (MOI = .001). After an absorption period of 1 hour at 37 °C, the monolayers are rinsed with culture media and aliquots of compounds diluted into tissue culture media are added for 14-16 hours at 37 °C in a CO2 atmosphere. The growth media is removed and 1 ml of fresh media is added to each well and plates are placed at -70 °C. After a 1-5 day storage period the plates are rapidly thawed, samples are collected on ice and titrated on fresh Vero cell monolayers. Viral plaques are stained with 0.1% crystal violet in 20% alcohol for 10 minutes and are counted. Data are calculated to reflect the percentage of inhibition at indicated concentration relative to infected, non-drug treated controls.

HSV-2 = test: Virus yield reduction assay, inhibition of HSV-2 viral replication (substantially the same assay as for HSV-1)
Method: as §1
Compounds of the formulas II and III of the present invention are also evaluated in substantially the same assay as described above to measure the inhibition of HSV-2 viral replication.

VZV = test: Plaque reduction assay, VZV replication in HFF cells over five days
Method: Antiviral activity against VZV are evaluated in an assay to measure the reduction of viral replication in the number viral plaques formed over five days of incubation in the presence of compounds of the present invention. Aliquots of VZV are added for 90 minutes to 24 well plates having HFF cells at 80% confluence to yield approximately 25 plaques for media treated wells. The plates are flicked and dilutions of compounds in tissue culture media at 2 time strength are added (0.5 ml per well). Immediately following the addition of drug 0.5 ml of 1.0% agarose is added to the wells and the plates are gently tapped to aid mixing. This final concentration of agarose (0.5%) is insufficient to solidify at 37 °C and serves as a semi solid overlay medium. Plates are undisturbed for five days. On day 5 the plates are examined microscopically for toxicity and plaques are counted using low power microscopy.

[1] = Human alphaherpesvirus 1, Vero, 14 h
[2] = Human alphaherpesvirus 1, 14 h, 5 µm, Vero cells, MOI = .001, 14-16 hours
[3] = Human alphaherpesvirus 1, 14 h, 30 µm, Vero cells, MOI = .001, 14-16 hours

Compound | inhibition at 5 µM (HSV-1; [1]) | inhibition at 30 µM (HSV-1; [1]) | inhibition at 5 µM (HSV-1; [2]) | inhibition at 30 µM (HSV-1; [3]) | also measured
O=S(=O)(c1ccc(OCc2ccncc2)cc1)c1ccc(OCc2ccncc2)cc1 [Example 19, bis[(4-pyridyl)methoxy](sulfonyldi-4,1-phenylene)] | 0 to 50% | 0 to 50% | – | – | –
S=C(NCCc1ccccc1)Nc1ccc(Oc2ccc(NC(=S)NCCc3ccccc3)cc2)cc1 [Example 15, N,N''-(oxydi-4,1-phenylene)bis[N'-(2-phenylethyl)thiourea]] | 0 to 50% | 0 to 50% | – | – | % Inhibition Against HSV-2 Viral Replication (HSV-2; 1µm): + (<50% inhibition at the indicated concentration); % Inhibition Against HSV-2 Viral Replication (HSV-2; 10 µm): + (<50% inhibition at the indicated concentration); % Inhibition Against VZV Viral Replication (VZV; 2µm): +++ (>90% inhibition at the indicated concentration)
COc1ccc(NC(=O)Nc2ccc([N+](=O)[O-])cc2)cc1NC(=O)Nc1ccc([N+](=O)[O-])cc1 [Example 2, N,N"-(4-methoxy-1,3-phenylene)bis[N'-(4-nitrophenyl)urea]] | – | – | < 0% | 50 to 90% | –
O=[N+]([O-])c1ccc(NC(=S)Nc2ccc(Oc3ccc(NC(=S)Nc4ccc([N+](=O)[O-])cc4)cc3)cc2)cc1 [Example 14, N,N"-(oxydi-4,1-phenylene)bis[N'-(4-nitrophenyl)thiourea]] | – | – | < 0% | 0 to 50% | –
CSC(=Nc1ccccc1)Nc1ccc(Oc2ccc(NC(=Nc3ccccc3)SC)cc2)cc1 [Example 5, dimethyl N,N"-(oxydi-4,1-phenylene)bis [N'-(phenyl) carbamimidothioate]] | – | – | < 0% | 0 to 50% | –
CSC(=NCCc1ccccc1)Nc1ccc(Oc2ccc(NC(=NCCc3ccccc3)SC)cc2)cc1 [Example 12, dimethyl N,N"-(oxydi-4,1-phenylene)bis[N'-(2-phenylethyl)carbamimidothioate]] | – | – | 50 to 90% | > 90% | % Inhibition Against HSV-2 Viral Replication (HSV-2; 1µm): + (<50% inhibition at the indicated concentration); % Inhibition Against HSV-2 Viral Replication (HSV-2; 10 µm): ++ (> 50% inhibition at the indicated concentration); % Inhibition Against VZV Viral Replication (VZV; 2µm): +++ (>90% inhibition at the indicated concentration)
O=S(=O)(c1ccc(OCc2ccc(F)cc2)cc1)c1ccc(OCc2ccc(F)cc2)cc1 [Example 20, bis(4-fluorobenzyloxy)(sulfonyldi-4,1-phenylene)] | 0 to 50% | 50 to 90% | – | – | –
Cc1ccc(NS(=O)(=O)c2cccc(S(=O)(=O)Nc3ccc(C)cc3)c2)cc1 [Example 10, N,N"-(1,3-phenylene)bis[N-(p-tolyl)aminosulfonyl]] | 0 to 50% | 50 to 90% | – | – | –
N=C(Nc1ccc(Cc2ccc(NC(=N)c3ccccc3)cc2)cc1)c1ccccc1 [Example 13, N,N"-(methylenedi-4,1-phenylene)bis [benzenecarboximidamide]] | 0 to 50% | > 90% | – | – | % Inhibition Against HSV-2 Viral Replication (HSV-2; 1µm): + (<50% inhibition at the indicated concentration); % Inhibition Against HSV-2 Viral Replication (HSV-2; 10 µm): +++ (>90% inhibition at the indicated concentration); % Inhibition Against VZV Viral Replication (VZV; 2µm): + (<50% inhibition at the indicated concentration)
Cc1cccc(NS(=O)(=O)c2ccc(Oc3ccc(S(=O)(=O)Nc4cccc(C)c4)cc3)cc2)c1 [Example 11, bis[N-(3-methylphenyl)aminosulfonyl](oxydi-4,1-phenylene)] | < 0% | 50 to 90% | – | – | –
COc1cccc(NS(=O)(=O)c2ccc(Oc3ccc(S(=O)(=O)Nc4cccc(OC)c4)cc3)cc2)c1 [Example 9, bis[N-(3-methoxyphenyl)aminosulfonyl](oxydi-4,1-phenylene)] | 0 to 50% | > 90% | – | – | –
O=S(=O)(c1ccc(OCc2ccc(Cl)cc2)cc1)c1ccc(OCc2ccc(Cl)cc2)cc1 [Example 17, bis(4-chlorobenzyloxy)(sulfonyldi-4,1-phenylene)] | 0 to 50% | 50 to 90% | – | – | % Inhibition Against HSV-2 Viral Replication (HSV-2; 1µm): ++ (> 50% inhibition at the indicated concentration); % Inhibition Against HSV-2 Viral Replication (HSV-2; 10 µm): ++ (> 50% inhibition at the indicated concentration); % Inhibition Against VZV Viral Replication (VZV; 2µm): ++ (> 50% inhibition at the indicated concentration)
COc1ccc(NC(=S)Nc2ccc([N+](=O)[O-])cc2)cc1NC(=S)Nc1ccc([N+](=O)[O-])cc1 [Example 7, N,N"-(4-methoxy-1,3-phenylene)bis[N'-(4-nitrophenyl)thiourea]] | – | – | < 0% | 0 to 50% | –
O=C(Nc1ccc(Oc2ccc(NC(=O)c3ccco3)cc2)cc1)c1ccco1 [Example 16, N,N"-(oxydi-4,1-phenylene)bis(2-furancarboxamide)] | 0 to 50% | 50 to 90% | – | – | –
O=[N+]([O-])c1ccc(NC(=S)Nc2ccc(Cc3ccc(NC(=S)Nc4ccc([N+](=O)[O-])cc4)cc3)cc2)cc1 [Example 23, N, N"-(methylenedi-4,1-phenylene)bis[N'-(4-nitrophenyl)thiourea]] | – | – | < 0% | > 90% | % Inhibition Against VZV Viral Replication (VZV; 10µm): + (<50% inhibition at the indicated concentration)
COc1ccc(NC(=O)Nc2ccc(C)cc2)cc1NC(=O)Nc1ccc(C)cc1 [Example 4, N,N"-(4-methoxy-1,3-phenylene)bis[N'-(p-tolyl)urea]] | 0 to 50% | 0 to 50% | – | – | –
CSC(=Nc1ccc([N+](=O)[O-])cc1)Nc1ccc(Oc2ccc(NC(=Nc3ccc([N+](=O)[O-])cc3)SC)cc2)cc1 [Example 8, dimethyl N,N"-(oxydi-4,1-phenylene)bis[N'-(4-nitrophenyl)carbamimidothioate]] | – | – | < 0% | 0 to 50% | –
Cc1ccc(NC(=S)Nc2ccc(Cl)cc2)cc1NC(=S)Nc1ccc(Cl)cc1 [Example 1, N,N"-(4-methyl-1,3-phenylene)bis[N'-(4-chlorophenyl)thiourea]] | < 0% | 0 to 50% | – | – | –
COc1ccc(NC(=O)Nc2ccc(Cl)cc2)cc1NC(=O)Nc1ccc(Cl)cc1 [Example 3, N,N"-(4-methoxy-1,3-phenylene)bis[N'-(4-chlorophenyl)urea]] | 0 to 50% | 0 to 50% | – | – | –
O=S(=O)(c1ccc(O)cc1)c1ccc(OCc2ccc(Cl)cc2)cc1 [Example 22, (4-chlorobenzyloxy)hydroxy(sulfonyldi-4,1-phenylene)] | < 0% | 50 to 90% | – | – | –
O=S(=O)(c1ccc(OCc2ccc(Br)cc2)cc1)c1ccc(OCc2ccc(Br)cc2)cc1 [Example 18, bis(4-bromobenzyloxy)(sulfonyldi-4,1-phenylene)] | 0 to 50% | 50 to 90% | – | – | % Inhibition Against VZV Viral Replication (VZV; 10µm): +++ (>90% inhibition at the indicated concentration)
O=[N+]([O-])c1ccc(COc2ccc(S(=O)(=O)c3ccc(O)cc3)cc2)cc1 [Example 21, hydroxy(4-nitrobenzyloxy)(sulfonyldi-4,1-phenylene)] | < 0% | 50 to 90% | – | – | –
COc1ccc(NC(=S)Nc2ccc(Cl)cc2)cc1NC(=S)Nc1ccc(Cl)cc1 [Example 6, N,N"-(4-methoxy-1,3-phenylene)bis[N'-(4-chlorophenyl)thiourea]] | < 0% | 0 to 50% | – | – | –
